From US20230157952A1, “METHOD FOR IMPROVING THE STABILITY OF A PHARMACEUTICAL COMPOSITION COMPRISING A HIGH PENETRATION DRUG, AND THE PHARMACEUTICAL COMPOSITION OBTAINED THEREFROM” (Techfields Inc., priority 2020, published 2023)
Each block holds one molecule with its values, some of them ahead of it.

Experiments:
[1] = Effect of pH value on the stability of the solution (purity); format: physicochemical; conditions: 25° C.
[2] = Effect of concentration on the stability of the solution (purity over time); conditions: in water at 25° C.
[3] = Effect of temperature (and pH) on the stability of the solution (purity); format: physicochemical; conditions: 7% solution in water
[4] = day 0, pH 1.0, 7% in 25% ethanol
[5] = day 0, pH 2.0, 7% in 25% ethanol
[6] = day 0, pH 3.0, 7% in 25% ethanol
[7] = day 0, pH 3.7, 7% in 25% ethanol
[8] = day 0, pH 4.0, 7% in 25% ethanol
[9] = day 0, pH 4.3, 7% in 25% ethanol
[10] = day 0, pH 4.6, 7% in 25% ethanol
[11] = day 0, pH 5.0, 7% in 25% ethanol
[12] = day 0, pH 6.0, 7% in 25% ethanol
[13] = day 0, pH 7.0, 7% in 25% ethanol
[14] = day 0, pH 8.0, 7% in 25% ethanol
[15] = day 28, pH 1.0, 7% in 25% ethanol
[16] = day 28, pH 2.0, 7% in 25% ethanol
[17] = day 28, pH 3.0, 7% in 25% ethanol
[18] = day 28, pH 3.7, 7% in 25% ethanol
[19] = day 28, pH 4.0, 7% in 25% ethanol
[20] = day 28, pH 4.3, 7% in 25% ethanol
[21] = day 28, pH 4.6, 7% in 25% ethanol
[22] = day 28, pH 5.0, 7% in 25% ethanol
[23] = day 28, pH 6.0, 7% in 25% ethanol
[24] = day 28, pH 7.0, 7% in 25% ethanol
[25] = day 28, pH 8.0, 7% in 25% ethanol

Compound: CC(C)Cc1ccc([C@@H](C)C(=O)OCCC2CCNCC2)cc1.Cl (racemic) [C-8, 4-piperidineethyl (R,S)-2-(p-isobutylphenyl)propionate•HCl salt]
Purity(%) from day 0-28 [1, 4]: 97.6 ± 0.4%
Purity(%) from day 0-28 [1, 5]: 98.0 ± 0.3%
Purity(%) from day 0-28 [1, 6]: 98.1 ± 0.2%
Purity(%) from day 0-28 [1, 7]: 98.3 ± 0.3%
Purity(%) from day 0-28 [1, 8]: 98.4 ± 0.3%
Purity(%) from day 0-28 [1, 9]: 98.4 ± 0.2%
Purity(%) from day 0-28 [1, 10]: 98.3 ± 0.2%
Purity(%) from day 0-28 [1, 11]: 98.3 ± 0.4%
Purity(%) from day 0-28 [1, 12]: 98.2 ± 0.3%
Purity(%) from day 0-28 [1, 13]: 97.9 ± 0.3%
Purity(%) from day 0-28 [1, 14]: 97.6 ± 0.5%
Purity(%) from day 0-28 [1, 15]: 68.4 ± 0.4%
Purity(%) from day 0-28 [1, 16]: 87.3 ± 0.3%
Purity(%) from day 0-28 [1, 17]: 87.3 ± 0.3%
Purity(%) from day 0-28 [1, 18]: 95.0 ± 0.2%
Purity(%) from day 0-28 [1, 19]: 96.1 ± 0.3%
Purity(%) from day 0-28 [1, 20]: 96.3 ± 0.3%
Purity(%) from day 0-28 [1, 21]: 96.3 ± 0.2%
Purity(%) from day 0-28 [1, 22]: 89.7 ± 0.3%
Purity(%) from day 0-28 [1, 23]: 87.3 ± 0.3%
Purity(%) from day 0-28 [1, 24]: 48.3 ± 0.4%
Purity(%) from day 0-28 [1, 25]: 34.2 ± 0.3%

Compound: CCN(CC)CCOC(=O)CC1=C(C)C(=Cc2ccc([S+](C)[O-])cc2)c2ccc(F)cc21.Cl (stereo not shown) [2-(diethylamino)ethyl 5-fluoro-2-methyl-1-[[4-(methylsulfinyl)phenyl]methylene]-1H-indene-3-acetate•HCl]
Purity at Day 3 ([2]; 0.01 wt %): 82.3%
Purity at Day 7 ([2]; 0.01 wt %): 71.2%
Purity at Day 14 ([2]; 0.01 wt %): 59.4%
Purity at Day 21 ([2]; 0.01 wt %): 50.4%
Purity at Day 28 ([2]; 0.01 wt %): 43.7%
Purity at hr 0 ([2]; 0.01 wt %): 97.1%
Purity at Day 3 ([2]; 0.1 wt %): 95.7%
Purity at Day 7 ([2]; 0.1 wt %): 93.6%
Purity at Day 14 ([2]; 0.1 wt %): 89.8%
Purity at Day 21 ([2]; 0.1 wt %): 84.4%
Purity at Day 28 ([2]; 0.1 wt %): 78.9%
Purity at hr 0 ([2]; 0.1 wt %): 97.2%
Purity at Day 3 ([2]; 1 wt %): 96.2%
Purity at Day 7 ([2]; 1 wt %): 95.2%
Purity at Day 14 ([2]; 1 wt %): 93.1%
Purity at Day 21 ([2]; 1 wt %): 91.5%
Purity at Day 28 ([2]; 1 wt %): 90.1%
Purity at hr 0 ([2]; 1 wt %): 97.3%
Purity at Day 3 ([2]; 3 wt %): 96.7%
Purity at Day 7 ([2]; 3 wt %): 96.3%
Purity at Day 14 ([2]; 3 wt %): 95.0%
Purity at Day 21 ([2]; 3 wt %): 94.1%
Purity at Day 28 ([2]; 3 wt %): 93.1%
Purity at hr 0 ([2]; 3 wt %): 97.3%
Purity at Day 3 ([2]; 5 wt %): 97.3%
Purity at Day 7 ([2]; 5 wt %): 97.1%
Purity at Day 14 ([2]; 5 wt %): 96.7%
Purity at Day 21 ([2]; 5 wt %): 96.2%
Purity at Day 28 ([2]; 5 wt %): 95.4%
Purity at hr 0 ([2]; 5 wt %): 97.5%
Purity at Day 3 ([2]; 7 wt %): 97.4%
Purity at Day 7 ([2]; 7 wt %): 97.3%
Purity at Day 14 ([2]; 7 wt %): 97.1%
Purity at Day 21 ([2]; 7 wt %): 96.6%
Purity at Day 28 ([2]; 7 wt %): 96.4%
Purity at hr 0 ([2]; 7 wt %): 97.6%
Purity at Day 3 ([2]; 8 wt %): 97.4%
Purity at Day 7 ([2]; 8 wt %): 97.2%
Purity at Day 14 ([2]; 8 wt %): 96.9%
Purity at Day 21 ([2]; 8 wt %): 96.8%
Purity at Day 28 ([2]; 8 wt %): 96.5%
Purity at hr 0 ([2]; 8 wt %): 97.5%
Purity at Day 3 ([2]; 10 wt %): 97.5%
Purity at Day 7 ([2]; 10 wt %): 97.3%
Purity at Day 14 ([2]; 10 wt %): 97.0%
Purity at Day 21 ([2]; 10 wt %): 97.0%
Purity at Day 28 ([2]; 10 wt %): 96.7%
Purity at hr 0 ([2]; 10 wt %): 97.5%
Purity at Day 3 ([2]; 15 wt %): 97.4%
Purity at Day 7 ([2]; 15 wt %): 97.4%
Purity at Day 14 ([2]; 15 wt %): 97.1%
Purity at Day 21 ([2]; 15 wt %): 97.1%
Purity at Day 28 ([2]; 15 wt %): 96.8%
Purity at hr 0 ([2]; 15 wt %): 97.6%
Purity at Day 3 ([2]; 20 wt %): 97.4%
Purity at Day 7 ([2]; 20 wt %): 97.6%
Purity at Day 14 ([2]; 20 wt %): 97.2%
Purity at Day 21 ([2]; 20 wt %): 97.1%
Purity at Day 28 ([2]; 20 wt %): 96.8%
Purity at hr 0 ([2]; 20 wt %): 97.6%
Purity at Day 3 ([2]; 30 wt %): 97.5%
Purity at Day 7 ([2]; 30 wt %): 97.5%
Purity at Day 14 ([2]; 30 wt %): 97.3%
Purity at Day 21 ([2]; 30 wt %): 97.0%
Purity at Day 28 ([2]; 30 wt %): 96.7%
Purity at hr 0 ([2]; 30 wt %): 97.7%
Purity at Day 3 ([2]; 50 wt %): 97.5%
Purity at Day 7 ([2]; 50 wt %): 97.5%
Purity at Day 14 ([2]; 50 wt %): 97.2%
Purity at Day 21 ([2]; 50 wt %): 96.8%
Purity at Day 28 ([2]; 50 wt %): 96.8%
Purity at hr 0 ([2]; 50 wt %): 97.7%
Stability when the concentration is 0.1% or lower [2]: not stable
Stability of the solution at a temperature higher than 40° C. and a pH lower than 3 or greater than 6 [3]: not stable

Compound: CCN(CC)CCOC(=O)c1ccccc1OC(C)=O.O=C(O)/C=C\C(=O)O [A-1, 2-(diethylamino)ethyl acetylsalicylate•maleic acid salt]
Purity(%) from day 0-14 ([1]; day 14, pH 1.0, 7% in water): 59.1 ± 0.4%
Purity(%) from day 0-14 ([1]; day 14, pH 2.0, 7% in water): 78.8 ± 0.3%
Purity(%) from day 0-14 ([1]; day 14, pH 3.0, 7% in water): 90.9 ± 0.2%
Purity(%) from day 0-14 ([1]; day 14, pH 3.7, 7% in water): 94.0 ± 0.3%
Purity(%) from day 0-14 ([1]; day 14, pH 4.0, 7% in water): 94.5 ± 0.2%
Purity(%) from day 0-14 ([1]; day 14, pH 4.3, 7% in water): 94.6 ± 0.3%
Purity(%) from day 0-14 ([1]; day 14, pH 4.6, 7% in water): 94.3 ± 0.2%
Purity(%) from day 0-14 ([1]; day 14, pH 5.0, 7% in water): 86.9 ± 0.3%
Purity(%) from day 0-14 ([1]; day 14, pH 6.0, 7% in water): 78.9 ± 0.3%
Purity(%) from day 0-14 ([1]; day 14, pH 7.0, 7% in water): 57.8 ± 0.4%
Purity(%) from day 0-14 ([1]; day 14, pH 8.0, 7% in water): 16.1 ± 0.4%

Other lines, results leading:

Purity(%) from day 0-28 [1, 4]: 98.0 ± 0.3%
Purity(%) from day 0-28 [1, 5]: 98.2 ± 0.4%
Purity(%) from day 0-28 [1, 6]: 98.5 ± 0.3%
Purity(%) from day 0-28 [1, 7]: 98.6 ± 0.4%
Purity(%) from day 0-28 [1, 8]: 98.6 ± 0.3%
Purity(%) from day 0-28 [1, 9]: 98.7 ± 0.2%
Purity(%) from day 0-28 [1, 10]: 98.6 ± 0.3%
Purity(%) from day 0-28 [1, 11]: 98.5 ± 0.4%
Purity(%) from day 0-28 [1, 12]: 98.4 ± 0.5%
Purity(%) from day 0-28 [1, 13]: 98.1 ± 0.5%
Purity(%) from day 0-28 [1, 14]: 97.9 ± 0.5%
Purity(%) from day 0-28 [1, 15]: 68.3 ± 0.2%
Purity(%) from day 0-28 [1, 16]: 87.7 ± 0.3%
Purity(%) from day 0-28 [1, 17]: 87.7 ± 0.2%
Purity(%) from day 0-28 [1, 18]: 95.5 ± 0.3%
Purity(%) from day 0-28 [1, 19]: 96.3 ± 0.3%
Purity(%) from day 0-28 [1, 20]: 96.4 ± 0.2%
Purity(%) from day 0-28 [1, 21]: 96.4 ± 0.3%
Purity(%) from day 0-28 [1, 22]: 88.6 ± 0.3%
Purity(%) from day 0-28 [1, 23]: 89.0 ± 0.4%
Purity(%) from day 0-28 [1, 24]: 48.1 ± 0.3%
Purity(%) from day 0-28 [1, 25]: 34.4 ± 0.4%
Compound: CC(C)Cc1ccc([C@@H](C)C(=O)OCCN2CCCC2)cc1.Cl (racemic) [C-9, 1-pyrrolidineethyl (R,S)-2-(p-isobutylphenyl)propionate•HCl salt]

Purity(%) from day 0-28 [1, 4]: 97.6 ± 0.3%
Purity(%) from day 0-28 [1, 5]: 97.9 ± 0.4%
Purity(%) from day 0-28 [1, 6]: 98.0 ± 0.3%
Purity(%) from day 0-28 [1, 7]: 98.2 ± 0.3%
Purity(%) from day 0-28 [1, 8]: 98.2 ± 0.2%
Purity(%) from day 0-28 [1, 9]: 98.3 ± 0.3%
Purity(%) from day 0-28 [1, 10]: 98.2 ± 0.4%
Purity(%) from day 0-28 [1, 11]: 98.2 ± 0.3%
Purity(%) from day 0-28 [1, 12]: 98.1 ± 0.3%
Purity(%) from day 0-28 [1, 13]: 97.8 ± 0.3%
Purity(%) from day 0-28 [1, 14]: 97.5 ± 0.5%
Purity(%) from day 0-28 [1, 15]: 68.1 ± 0.3%
Purity(%) from day 0-28 [1, 16]: 87.0 ± 0.3%
Purity(%) from day 0-28 [1, 17]: 87.0 ± 0.2%
Purity(%) from day 0-28 [1, 18]: 95.1 ± 0.3%
Purity(%) from day 0-28 [1, 19]: 95.8 ± 0.3%
Purity(%) from day 0-28 [1, 20]: 95.9 ± 0.2%
Purity(%) from day 0-28 [1, 21]: 95.8 ± 0.3%
Purity(%) from day 0-28 [1, 22]: 88.5 ± 0.4%
Purity(%) from day 0-28 [1, 23]: 87.9 ± 0.3%
Purity(%) from day 0-28 [1, 24]: 47.8 ± 0.3%
Purity(%) from day 0-28 [1, 25]: 34.1 ± 0.4%
Compound: CC(C)Cc1ccc(C(C)C(=O)OCCN2CCCCC2)cc1.Cl (racemic) [C-10, 1-piperidineethyl (R,S)-2-(p-isobutylphenyl)propionate•HCl salt]
